From patent US5079247A, “N^1 -substituted benz(cd)indol-2-imine compounds as cardiovascular agents” (American Cyanamid Company, priority 1990, dated 1992)
Where a name gives a salt, the structure may show the parent alone.

Tests used:
[1] = system: KCl-induced cardiac arrhythmias, fibrillation and cardiac death in mice; test: Antiarrhythmic/antifibrillatory activity in anesthetized mice, potassium chloride challenge; assay type: in vivo, mice of the Swiss Webster Strain; conditions: Mus musculus, iv, 0.25 h, potassium chloride 62.5 mg/kg i.v.; for responders at 10 mg/kg: Dose = 10 mg/kg I.V., 15 minutes observation, read-out: KCl Mice Surviving / Mice Tested (converted)
Excerpt: (§1) Intravenous administration of high doses of calcium or potassium chloride in animals produces cardiac arrhythmias, cardiac fibrillation and cardiac arrest. Any agent that can prevent these events is considered an antiarrhythmic/antifibrillatory agent. (Meth. and Find Exptl. Clin Pharmacal.2:223-252(1980); Pharmacol Ther. 24:401-433 (1984); Experimental Cardiac and Antiarrhythmic Drugs, L. Szekeres and Gy. J. Dapp, Akademiai Kiado Preso, Budapest, 9-448 (1971)).
(§2) The method employed is as follows: Male mice of the Swiss Webster Strain (Charles River, Wilmington, MA) weighing 25-35 g were anesthetized with ethyl carbamate (urethan) (1.5g/kg body weight i.p.). A 25-gauge needle attached to PE-20 tubing was inserted into a caudal vein for drug administration. The lead II ECG was recorded by needle electrodes placed subcutaneously in the limbs. All data were collected on a Gould Brush recorder. Animals were observed 5 minutes before drug administration. A 5, 15 or 30 minute period following drug administration was allowed before the bolus injection of calcium chloride, 200 mg/ kg i.v. or potassium chloride, 62.5 mg/kg i.v. Control mice received 4 ml/kg of 0.9% sodium chloride i.v. Mice were observed an additional 15 minutes for arrhythmias,fibrillation, survival or death. Any compound at a dose of less than 20 mg/kg i.v. in either test that protects from cardiac death 3 or more mice out of 6 mice, is considered active.

[2] = system: CaCl2-induced cardiac arrhythmias, fibrillation and cardiac death in mice; test: Antiarrhythmic/antifibrillatory activity in anesthetized mice, calcium chloride challenge; assay type: in vivo, mice of the Swiss Webster Strain; conditions: Mus musculus, iv, 0.25 h, calcium chloride 200 mg/kg i.v., read-out: CaCl2 Mice Surviving / Mice Tested (converted); for responders at 10 mg/kg: Dose = 10 mg/kg I.V., 15 minutes observation
Excerpt: as §1, §2

[3] = target: T1, thromboxane synthetase enzyme (Rattus norvegicus, UniProt P49430); test: Thromboxane synthetase enzyme inhibition (TXB2 formation in platelet suspension, RIA); assay type: cell-based, Okamoto-Aoki spontaneously hypertensive rats (SHR); conditions: concentration 1 × 10^-4 M; SHR platelet suspension, 10 minutes at 37° C.
T1 construct: The platelets were isolated by centrifuging the PRP for 10 minutes; from tissue; host or cells: washed platelets from arterial blood of Okamoto-Aoki spontaneously hypertensive rats (animals from Taconic Farms)
T1 sequence (P49430 1-533): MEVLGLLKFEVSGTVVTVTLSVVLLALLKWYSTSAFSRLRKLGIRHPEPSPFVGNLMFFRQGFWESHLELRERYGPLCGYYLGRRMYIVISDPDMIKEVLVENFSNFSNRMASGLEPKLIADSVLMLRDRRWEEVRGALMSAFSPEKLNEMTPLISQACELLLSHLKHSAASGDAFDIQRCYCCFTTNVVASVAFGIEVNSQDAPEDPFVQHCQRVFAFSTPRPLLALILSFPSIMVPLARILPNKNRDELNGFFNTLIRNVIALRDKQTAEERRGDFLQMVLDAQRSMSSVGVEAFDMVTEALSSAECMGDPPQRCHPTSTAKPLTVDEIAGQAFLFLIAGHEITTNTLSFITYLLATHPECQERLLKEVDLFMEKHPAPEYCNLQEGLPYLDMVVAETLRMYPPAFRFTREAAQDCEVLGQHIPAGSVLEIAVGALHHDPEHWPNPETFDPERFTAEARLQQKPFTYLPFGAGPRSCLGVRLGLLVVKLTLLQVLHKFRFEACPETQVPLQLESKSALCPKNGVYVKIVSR
Description: Under urethan anethesia, […] of arterial blood from Okamoto-Aoki spontaneously hypertensive rats (SHR) (Taconic Farms, Germantown, New York) between 19 and 24 weeks in age was collected in 1 ml of 3.2% sodium citrate in a polystyrene tube. The blood was diluted with 3 ml of cold saline and centrifuged at room temperature for 15 minutes at 460Xg. The platelet rich plasma (PRP) was separated. The platelets were isolated by centrifuging the PRP for 10 minutes at 1060Xg and were washed in 4 ml of cold oxygenated Krebs phosphate buffer, pH 7.4. The chilled platelets, recovered from centrifuging at 800Xg for 10 minutes, were resuspended in oxygenated Krebs phosphate buffer and diluted to contain 4.5-6.0×10^4 platelets/μl. The inhibition of thromboxane (TX) formation was studied by determining the concentration of thromboxane B2 (TXB2), the stable hydrolysis product of TXA2. Assay samples, prepared on ice, contained 200 μl platelet suspension, 50 μl saline, and 50 μl vehicle or drug under study at a concentration of 1×10^-4 M. The samples were incubated for 10 minutes at 37° C. in metabolic shaker. The reaction was terminated by immersing the tubes in an ice bath and adding 50 μl of 0.5M citric acid. The samples were centrifuged for 10 minutes in a refrigerated centrifuge and the supernatants thus obtained were decanted and stored at -20° C. The TXB2 content for each sample was determined by a direct radioimmunoassay (RIA) utilizing a TXB2 specific RIA kit purchased from New England Nuclear, Boston, Massachusetts and expressed as pg TXB2 formed minute^-1 sample^-1, from which the percent inhibition of TXB2 formation was calculated.

[4] = system: spontaneously hypertensive rats of the Okamoto strain; test: Hypotensive activity in spontaneously hypertensive rats (method of Chan and Poorvin); assay type: in vivo, rat; conditions: by gavage, 100 mg/kg or less, two doses 24 hours apart; MABP at 28 hours after initial dose; average baseline MABP 160±1.5 mm of mercury
Description: The novel compounds of the present invention are active hypotensive agents and were tested for hypotensive activity by the method of P. S. Chan and D. Poorvin, Clinical and Experimental Hypertension, 1 (6), 817-830 (1979). Male, 16 week old, spontaneously hypertensive rats of the Okamoto strain, from Taconic Farms, Germantown, New York, having an average mean arterial blood pressure of 160±1.5 mm of mercury, were used in the test. One to 3 rats were used per test compound. […] A second identical dose of the test compound, without sodium chloride loading was given 24 hours later. At 28 hours after the initial dose the mean arterial blood pressure (MABP) was measured. The procedure was repeated in a second and third rat when necessary.

inhibition at 100 µM [3]	SMILES	responders at 10 mg/kg [1]	responders at 10 mg/kg [2]	further results
	c1ccc(CN2C(=NCCCn3ccnc3)c3cccc4cccc2c34)cc1 [Example 5, N-[1-(Phenylmethyl)benz[cd]indol-2 (1H)-ylidene]-1H-imidazole-1-propanamine]	83.3%	83.3%	
90%	Cl.Cl.c1ccc(OCCCN2C(=NCCCn3ccnc3)c3cccc4cccc2c34)cc1 [Example 12, N-[1-(3-Phenoxypropyl)benz[cd]indol-2(1H)-ylidene]-1H-imidazole-1-propanamine, dihydrochloride]			Avg. MABP in mm Hg (No. of Rats) [4]: 122 mm Hg
92%	c1ccc(CCCN2C(=NCCCn3ccnc3)c3cccc4cccc2c34)cc1 [Example 13, N-[1-(3-Phenylpropyl)benz[cd]indol-2(1H)-ylidene]-1H-imidazole-1-propanamine, (E)-2-butenedioate (1:2)]			
	COc1cccc(CN2C(=NCCCn3ccnc3)c3cccc4cccc2c34)c1 [Example 14, N-[1-[(3Methoxyphenyl)methyl]benz[cd]indol-2(1H)-ylidene]-1H-imidazole-1-propanamine]	66.7%	16.7%	Avg. MABP in mm Hg (No. of Rats) [4]: 104 mm Hg
94%	CCCCCCN1C(=NCCCn2ccnc2)c2cccc3cccc1c23 [Example 16, N-(1-Hexylbenz[cd]indol-2(1H)-ylidene)-1H-imidazole 1-propanamine, (E)-2-butenedioate (1:2)]			
	CCN(CC)CCN1C(=NCCCn2ccnc2)c2cccc3cccc1c23 [Example 17, N,N-Diethyl-2-[[3-(1H-imidazol-1-yl)propyl]imino]benz[cd]indole-1(2H)-ethanamine, (E)-2butenedioate (1:3)]	66.7%	16.7%	
	CN1C(=NCCCn2ccnc2)c2cccc3cccc1c23 [Example 18, N-[1-Methylbenz[cd]indol-2(1H)-ylidene]-1H-imidazole-1-propanamine, (E)-2-butenedioate (1:2)]	66.7%	0%	
	c1cc2c3c(cccc3c1)N(CCCN1C(=NCCCn3ccnc3)c3cccc4cccc1c34)C2=NCCCn1ccnc1 [Example 20, N,N'-[1,3-Propanediylbis(benz[cd]indol-1(2H)-ylidene)]bis-1H-imidazole-1-propanamine]	0%	66.7%	
	CN1C(=NCCCn2ccnc2)c2cccc3c(CO)ccc1c23 [Example 21, 1,2-Dihydro-2-[[3-(1H-imidazol-1-yl)propyl]imino]-1-methylbenz[cd]indole-6-methanol, (E)-2-butanedioate (1:1)]	83.3%	43.8%	
	CN1C(=NCCCCn2ccnc2)c2cccc3cccc1c23 [Example 22, N-(1-Methylbenz[cd]indol-2(1H)-ylidene)-1H-imidazole-1-butanamine]			Avg. MABP in mm Hg (No. of Rats) [4]: 112 mm Hg
	c1ccc(CN2C(=NCCCCc3cccnc3)c3cccc4cccc2c34)cc1 [Example 29, N-[1-(Phenylmethyl)benz[cd]indol-2(1H)-ylidene]-3-pyridinebutanamine, (E)-2 butenedioate (1:2)]	66.7%	33.3%	
	c1ccc(C(c2ccccc2)N2C(=NCCCCc3cccnc3)c3cccc4cccc2c34)cc1 [Example 30]	83.3%	16.7%	
96%	c1cncc(CCCCN=C2c3cccc4cccc(c34)N2Cc2cccnc2)c1 [Example 31, N-[1-(3-Pyridinylmethyl)benz[cd]indol 2(1H)-ylidene]-3-pyridinebutanamine, dihydrochloride]			Avg. MABP in mm Hg (No. of Rats) [4]: 119 mm Hg
93%	CCCCCCN1C(=NCCCCc2cccnc2)c2cccc3cccc1c23 [Example 33, N-(1-Hexylbenz[cd]indol-2(1H)-ylidene)-3-pyridinebutanamine, (E)-2-butenedioate (2:3)]			
	CCN(CC)CC(=O)Nc1c(C)cccc1C [Lidocaine, reference compound]	50%	83.3%	
	CCN(CC)CCNC(=O)c1ccc(N)cc1 [Procainamide, reference compound]			responders at 5 mg/kg ([1]; 5 mg/kg i.v., read-out: KCl Mice Surviving / Mice Tested): 70%
	C=C[C@H]1C[N@@]2CC[C@H]1C[C@@H]2[C@@H](O)c1ccnc2ccc(OC)cc12 [Quinidine, reference compound]			responders at 15 mg/kg ([1]; 15 mg/kg i.v., read-out: KCl Mice Surviving / Mice Tested): 30%; responders at 15 mg/kg ([2]; 15 mg/kg i.v.): 75%

SMILES	inhibition at 100 µM [3]	responders at 10 mg/kg [1]	responders at 10 mg/kg [2]	further results
c1ccc(CN2C(=NCCCn3ccnc3)c3cccc4cccc2c34)cc1 [Example 6, N-[1-(Phenylmethyl)benz[cd]indol-2(1H)-ylidene]-1H-imidazole-1-propanamine,(E)-2-butenedioate (1:2)]	90%			
c1ccc(C(c2ccccc2)N2C(=NCCCn3ccnc3)c3cccc4cccc2c34)cc1 [Example 7, N-[1 (Diphenylmethyl)benz[cd]indol-2(1H)-ylidene]-1H-imidazole-1 propanamine]	75%	83.3%	16.7%	
N#CCCCCN1C(=NCCCn2ccnc2)c2cccc3cccc1c23 [Example 15, 2-[[3-(1H-Imidazol-1 yl)propyl]imino]benz[cd]indole-1(2H)-pentanenitrile]	94%	50%	16.7%	
CCN(CC)CCN1C(=NCc2cccnc2)c2cccc3cccc1c23 [Example 25, N,N-Diethyl-2-[(3-pyridinylmethyl)imino]benz[cd]indol-1(2H)ethanamine, (E)-2-butenedioate (2:3)]	91%	50%	16.7%	
